Results reported in PubChem BioAssay (NCI).
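Interpolation was linear, between the two tested concentrations surrounding the appropriate level; five concentrations were tested over 48 hours in 96-well plates. At the GI50, growth is halved. The concentration for full growth arrest is given as TGI.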

How the values were obtained:
Assay in all cases: growth of human tumour cells (NCI), 48 h
EKVX NSCLC = tested on: EKVX NSCLC
HCT-116 colon = tested on: HCT-116 colon
MOLT-4 leukemia = tested on: MOLT-4 leukemia
OVCAR-3 ovarian = tested on: OVCAR-3 ovarian
SF-295 CNS = tested on: SF-295 CNS
SK-MEL-28 melanoma = tested on: SK-MEL-28 melanoma
SK-OV-3 ovarian = tested on: SK-OV-3 ovarian
SNB-19 CNS = tested on: SNB-19 CNS
SW-620 colon = tested on: SW-620 colon
NCI/ADR-RES ovarian = tested on: NCI/ADR-RES ovarian

Row | SMILES | TGI (EKVX NSCLC) [µM] | TGI (HCT-116 colon) [µM] | TGI (MOLT-4 leukemia) [µM] | TGI (OVCAR-3 ovarian) [µM] | TGI (SF-295 CNS) [µM] | TGI (SK-MEL-28 melanoma) [µM] | TGI (SK-OV-3 ovarian) [µM] | TGI (SNB-19 CNS) [µM] | TGI (SW-620 colon) [µM] | GI50 (EKVX NSCLC) [µM] | GI50 (HCT-116 colon) [µM] | GI50 (MOLT-4 leukemia) [µM] | GI50 (OVCAR-3 ovarian) [µM] | GI50 (SF-295 CNS) [µM] | GI50 (SK-MEL-28 melanoma) [µM] | GI50 (SNB-19 CNS) [µM] | GI50 (SW-620 colon) [µM] | GI50 (NCI/ADR-RES ovarian) [µM] | TGI (NCI/ADR-RES ovarian) [µM] | GI50 (SK-OV-3 ovarian) [µM]
1 | COC(=O)C(=O)C(C#N)c1nc2ccccc2s1 (stereo not given) | > 100 | > 100 | > 100 | > 100 | > 100 | > 100 | > 100 | > 100 | > 100 | – | – | – | – | – | – | – | – | – | – | –
2 | CN(C)CCC(N)(P(=O)([O-])[O-])P(=O)([O-])[O-].N.N.[Pt+2] | > 100 | > 100 | > 100 | > 100 | > 100 | > 100 | – | > 100 | > 100 | > 100 | > 100 | > 100 | > 100 | > 100 | > 100 | > 100 | > 100 | – | – | –
3 | Cn1cc(C2=C(c3ccsc3)C(=O)NC2=O)c2ccccc21 | – | > 25 | > 25 | > 25 | > 25 | > 25 | > 25 | > 25 | > 25 | – | > 25 | > 25 | 17.2 | > 25 | > 25 | > 25 | > 25 | > 25 | > 25 | > 25
4 | Cc1c(C(Cc2ccccc2N(C)C(=O)/C=C\C(=O)O)c2c[nH]c3ccccc23)c2ccccc2n1C (stereo not given) | 33.1 | 28.4 | 53.8 | 27.7 | 28.8 | – | 40.2 | 39.4 | 34.5 | – | – | – | – | – | – | – | – | – | – | –
5 | Cc1cc(N(CCC#N)CCC#N)ccc1/C=C(\NC(=O)/C=C/c1ccccc1)C(=O)N=[N+]=[N-] | > 100 | > 100 | > 100 | > 100 | > 100 | > 100 | > 100 | > 100 | > 100 | – | – | – | – | – | – | – | – | – | – | –
6 | CCN(CC)CC(=O)NC1c2ccccc2Oc2ccccc21 | > 100 | > 100 | > 100 | – | – | > 100 | > 100 | > 100 | > 100 | – | – | – | – | – | – | – | – | – | – | –
7 | CC(C)(CN1CCCCC1)C(=O)/C=C/c1ccccc1 | 35.2 | 28.6 | 41.4 | 21.6 | 35.1 | 33 | 57.3 | 34.6 | 27.8 | – | – | – | – | – | – | – | – | – | – | –
8 | O=C(/C=C/c1ccccc1)NC1C=Nc2ccc([N+](=O)[O-])cc2NC1=O (stereo not given) | > 100 | > 100 | > 100 | > 100 | > 100 | > 100 | > 100 | > 100 | > 100 | – | – | – | – | – | – | – | – | – | – | –
9 | CN(C)CC1CC/C(=C\c2ccc(Cl)c(Cl)c2)C1=O (stereo not given) | > 58.7 | > 61.7 | 19 | > 61.5 | > 78.4 | > 84.8 | > 100 | > 56.1 | > 51.6 | – | – | – | – | – | – | – | – | – | – | –
10 | CN1C(=O)C(c2c[nH]c3ccccc23)=C(c2c[nH]c3ccccc23)C1=O | – | > 25 | > 25 | > 25 | 11.8 | > 25 | > 25 | > 25 | > 25 | – | 6.75 | 7.83 | 7.03 | 4.48 | 7.84 | 9.77 | 5.78 | 6.66 | > 25 | 12
11 | CC(=O)N1C/C(=C\c2ccccc2)C(=O)/C(=C/c2ccccc2)C1 | 51.3 | 5.9 | 23 | 16.4 | 26.9 | 27.5 | > 54 | 31.5 | 8.37 | – | – | – | – | – | – | – | – | – | – | –
12 | O=C(CCc1n[nH]c(=S)o1)Nc1cc(Cl)ccc1Cl | > 100 | 30.8 | > 100 | > 100 | > 100 | > 100 | > 100 | > 100 | 32.1 | – | – | – | – | – | – | – | – | – | – | –
13 | O=C1NC(=O)C(c2c[nH]c3ccccc23)=C1c1c[nH]c2ccccc12 | – | > 25 | > 25 | > 25 | > 25 | > 25 | > 25 | > 25 | > 25 | – | 9.33 | 9.55 | 17.5 | 13.3 | 15.1 | > 25 | 13.3 | 12.8 | > 25 | 13.5
14 | NC(N)NCCCc1cn2c(n1)C1CCCN1C(=O)C2Cc1ccccc1 (stereo not given) | > 100 | > 100 | > 100 | > 100 | > 100 | > 100 | > 100 | > 100 | > 100 | – | – | – | – | – | – | – | – | – | – | –
15 | N#CC(C(=O)CCCC(=O)Nc1ccccc1[N+](=O)[O-])c1c(Cl)cccc1Cl (stereo not given) | > 100 | > 100 | > 100 | > 100 | > 100 | > 100 | > 100 | > 100 | > 100 | – | – | – | – | – | – | – | – | – | – | –
16 | CC(=O)C1(O)CC2(c3ccccc3)C(=O)C1(c1ccccc1)C(c1ccccc1)=C2c1ccccc1 (stereo not given) | > 100 | > 100 | > 100 | > 100 | > 100 | – | > 100 | > 100 | > 100 | – | – | – | – | – | – | – | – | – | – | –
17 | N#CCCNc1nonc1-c1nc2ccccc2n1CC(=O)c1ccc(N)cc1 | – | – | – | 0.0549 | > 100 | > 100 | 0.0665 | > 100 | > 100 | – | 0.0285 | 0.0301 | 0.0207 | < 0.01 | 0.0351 | – | 0.031 | < 0.01 | 0.0429 | 0.0189
18 | COc1ccc2c(c1)[C@@H](NC(C)=O)CCc1cc(OC)c(OC)c(OC)c1-2 | > 100 | 0.528 | > 42.5 | < 0.215 | < 0.215 | > 100 | 4.1 | > 10.5 | > 100 | – | – | – | – | – | – | – | – | – | – | –
19 | O=C1C2C3CC4C5C3C1C5C1(SCCS1)C42 (stereo not given) | – | > 100 | > 100 | – | – | > 100 | > 100 | > 100 | > 100 | – | – | – | – | – | – | – | – | – | – | –
20 | O=C(O)/C=C/c1ccc(O)c(O)c1 | > 100 | > 100 | > 100 | > 100 | > 100 | > 100 | > 100 | > 100 | > 76.3 | – | – | – | – | – | – | – | – | – | – | –
21 | O=S1OC(c2ccccc2)(c2ccccc2)C(c2ccccc2)(c2ccccc2)O1 | > 100 | > 100 | > 100 | > 100 | > 100 | > 100 | > 100 | > 100 | > 100 | – | – | – | – | – | – | – | – | – | – | –
22 | C=CCc1cccc(C=O)c1O | – | > 100 | 55.1 | – | > 100 | > 100 | > 100 | > 100 | > 100 | – | 4.07 | 15.5 | – | > 100 | > 100 | 14.6 | 50.6 | 20.4 | > 100 | > 100
23 | C=CCC1(O)c2ccccc2C(=O)c2c(OCC(=O)OCC)ccc(OCC(=O)OCC)c21 (stereo not given) | > 100 | > 100 | > 100 | > 100 | > 100 | > 100 | – | > 100 | > 100 | > 100 | > 100 | 51 | > 100 | > 100 | > 100 | > 100 | > 100 | > 100 | > 100 | –
24 | NC1=C(O)c2cccc3cccc(c23)C1=O | > 100 | > 100 | > 100 | > 100 | > 100 | > 100 | > 100 | > 100 | > 100 | – | – | – | – | – | – | – | – | – | – | –
25 | CC(C)=CCC/C(C)=C/CC/C(C)=C/CSC[C@H](NC(=O)CCCCCN1CCN(C)CC1)C(=O)NC1CCCCCC1 | – | 3.16 | 7.48 | 4.1 | 3.38 | 3.32 | 17.1 | 4.43 | 3.88 | – | 1.71 | 2.69 | 2.06 | 1.75 | 1.7 | 2.02 | 1.87 | 3.89 | 14.6 | 5.16
26 | Cc1ccc(S(=O)c2ccccc2[N+](=O)[O-])cc1 (stereo not given) | – | – | > 100 | > 100 | > 100 | > 100 | > 100 | > 100 | > 100 | – | – | – | – | – | – | – | – | – | – | –
27 | O=C1C=C(Nc2ccccc2)c2ccccc2C1=O | – | 5.49 | 9.47 | 5.27 | 3.5 | 4.46 | 8.99 | 6.73 | 5.33 | – | 2.15 | 2.87 | 1.96 | 1.9 | 2.13 | 2.2 | 2.1 | 2.48 | 8.82 | 2.95
28 | COc1ccc(C(=O)C(C(=O)CCC(=O)Nc2ccc(Cl)c(Cl)c2)c2ccc(OC)cc2)cc1 (stereo not given) | > 100 | > 100 | > 100 | > 100 | > 100 | > 100 | – | > 100 | > 100 | – | – | – | – | – | – | – | – | – | – | –
29 | C/C(CN1C(=O)c2ccccc2C1=O)=N\NS(=O)(=O)c1ccc2ccccc2c1 | > 100 | > 100 | > 100 | > 100 | > 100 | > 100 | > 100 | > 100 | > 100 | – | – | – | – | – | – | – | – | – | – | –
